Here are results for 14 compounds from US10253000B2, “Pyridazin-3(2H)-one derivatives as monoamine oxidase selective isoform B inhibitors” (UNIVERSIDADE DE VIGO, priority 2014, dated 2019).

Like-named read-outs stand apart in the source and are kept apart here. Marks after values point to notes of the source that are not given here. Where only a bound is given, the exact number is not on record here.

The target in one assay is T1, human recombinant MAO-A (Homo sapiens, UniProt P21397).
T1 construct: purchased Sigma-Aldrich Química S.A., Alcobendas, Spain; host or cells: insect cells (BTI-TN-5B1-4) infected with recombinant baculovirus
T1 sequence (P21397 1-527): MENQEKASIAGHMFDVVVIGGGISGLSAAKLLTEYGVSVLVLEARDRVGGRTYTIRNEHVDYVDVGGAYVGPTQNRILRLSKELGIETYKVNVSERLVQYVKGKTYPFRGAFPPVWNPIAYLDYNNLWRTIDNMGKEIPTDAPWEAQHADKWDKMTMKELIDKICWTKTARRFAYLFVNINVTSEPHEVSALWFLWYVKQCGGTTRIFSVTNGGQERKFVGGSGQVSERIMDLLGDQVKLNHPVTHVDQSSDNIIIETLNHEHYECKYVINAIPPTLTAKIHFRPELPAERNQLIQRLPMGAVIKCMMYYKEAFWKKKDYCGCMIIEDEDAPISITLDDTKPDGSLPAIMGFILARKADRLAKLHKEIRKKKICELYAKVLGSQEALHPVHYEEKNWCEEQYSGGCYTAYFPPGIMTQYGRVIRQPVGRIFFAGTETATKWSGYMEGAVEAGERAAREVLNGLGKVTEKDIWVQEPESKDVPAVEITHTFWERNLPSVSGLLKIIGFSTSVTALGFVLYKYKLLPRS
In words: Determination of MAO isoforms activity (Amplex Red, p-tyramine), MAO-A. The format is biochemical. To be noted: read-out: IC50 hMAO-A.

The next assay deals with T2, human recombinant MAO-B (Homo sapiens, UniProt P27338).
T2 construct: purchased Sigma-Aldrich Química S.A., Alcobendas, Spain; host or cells: insect cells (BTI-TN-5B1-4) infected with recombinant baculovirus
T2 sequence (P27338 1-520): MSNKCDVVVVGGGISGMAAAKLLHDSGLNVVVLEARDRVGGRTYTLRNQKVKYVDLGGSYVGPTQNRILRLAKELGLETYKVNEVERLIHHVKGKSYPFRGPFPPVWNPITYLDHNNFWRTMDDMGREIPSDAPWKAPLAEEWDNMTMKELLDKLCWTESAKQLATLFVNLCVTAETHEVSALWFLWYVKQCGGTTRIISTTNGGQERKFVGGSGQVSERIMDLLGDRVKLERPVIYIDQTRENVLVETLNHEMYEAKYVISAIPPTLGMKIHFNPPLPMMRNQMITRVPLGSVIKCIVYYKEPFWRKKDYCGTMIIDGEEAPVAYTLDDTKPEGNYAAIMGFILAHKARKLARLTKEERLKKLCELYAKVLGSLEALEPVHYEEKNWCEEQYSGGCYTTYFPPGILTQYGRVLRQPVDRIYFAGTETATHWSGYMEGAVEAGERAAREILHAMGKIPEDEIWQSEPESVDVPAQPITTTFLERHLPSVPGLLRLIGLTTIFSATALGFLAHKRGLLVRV
In words: Determination of MAO isoforms activity (Amplex Red, p-tyramine), MAO-B. Format: biochemical. To be noted: for S.I. Selectivity index hMAO-B = IC50 (hMAO-A)/IC50 (hMAO-B): bounds calculated taking the highest concentration studied (100 μM or 1 mM) as IC50; for IC50: read-out: IC50 hMAO-B.

Where [1] appears, read: human recombinant MAO-B, p-tyramine 1 mM, mean ± spread of 5 experiments.

One may read the IC50 as the concentration that inhibits the measured activity by half. On to `O=c1c(CSC(=S)N2CCCC2)ccnn1Cc1ccccc1` [IIIc3, 1-benzyl-6-oxo-1,6-dihydropyridazin-5-ylmethyl Pyrrolidin-1-ylcarbodithioate], for which the values for the IC50 at human recombinant MAO-A and at human recombinant MAO-B (setting [1]) were above 100 µM and 34 ± 2.26 µM, respectively. Moreover, the “S.I. Selectivity index hMAO-B = IC50 (hMAO-A)/IC50 (hMAO-B)” value (from here on “S.I. Selectivity index hMAO-B = IC50”) on human recombinant MAO-B is given as >2.9^b.
Take `O=c1c(CSC(=S)N2CCOCC2)ccnn1Cc1ccccc1` [IIIc5, 1-benzyl-6-oxo-1,6-dihydropyridazin-5-ylmethyl Morpholin-4-ylcarbodithioate]: the IC50 was above 100 µM at human recombinant MAO-A and 24.1 ± 1.6 µM on human recombinant MAO-B (setting [1]). For the same compound, the “S.I. Selectivity index hMAO-B = IC50” value on human recombinant MAO-B is reported as >4.2^b.
For the compound `O=C(c1ccccc1)N1CCN(C(=S)SCc2ccnn(Cc3ccccc3)c2=O)CC1` [IIIc11, 1-benzyl-6-oxo-1,6-dihydropyridazin-5-ylmethyl 4-benzoylpiperazin-1-ylcarbodithioate], the IC50 at human recombinant MAO-A and on human recombinant MAO-B was above 100 µM throughout.
As for `CCN(CC)C(=S)SCc1cnn(Cc2ccccc2)c(=O)c1` [IIc2, 1-benzyl-6-oxo-1,6-dihydropyridazin-4-ylmethyl N,N-diethyldithiocarbamate], the IC50 at human recombinant MAO-A is above 100 µM; at human recombinant MAO-B (setting [1]), 44.2 ± 2.95 µM. The “S.I. Selectivity index hMAO-B = IC50” value at human recombinant MAO-B is >2.3^b.
Take `O=c1cc(CSC(=S)N2CCCC2)cnn1Cc1ccccc1` [IIc3, 1-benzyl-6-oxo-1,6-dihydropyridazin-4-ylmethyl Pyrrolidin-1-ylcarbodithioate]: at human recombinant MAO-B, the “S.I. Selectivity index hMAO-B = IC50” value is given as 10.3. Moreover, the IC50 on human recombinant MAO-B (setting [1]) stood at 9.68 ± 0.65 µM.
On to `O=c1cc(CSC(=S)N2CCCCC2)cnn1Cc1ccccc1` [IIc4, 1-benzyl-6-oxo-1,6-dihydropyridazin-4-ylmethyl Piperidin-1-ylcarbodithioate], for which the results for the IC50 on human recombinant MAO-A and on human recombinant MAO-B (setting [1]) were above 100 µM and 6.71 ± 0.45 µM, respectively. Moreover, the “S.I. Selectivity index hMAO-B = IC50” value on human recombinant MAO-B was >15^b.
On to `O=c1cc(CSC(=S)N2CCOCC2)cnn1Cc1ccccc1` [IIc5, 1-benzyl-6-oxo-1,6-dihydropyridazin-4-ylmethyl Morpholin-4-ylcarbodithioate], for which, on human recombinant MAO-A, the IC50 is above 100 µM.
Regarding `O=C(c1ccccc1)N1CCN(C(=S)SCc2cnn(Cc3ccccc3)c(=O)c2)CC1` [IIc11, 1-benzyl-6-oxo-1,6-dihydropyridazin-4-ylmethyl 4-benzoylpiperazin-1-ylcarbodithioate], the IC50 on human recombinant MAO-A and on human recombinant MAO-B was above 100 µM throughout.
For `Cn1nc(CCSC(=S)N2CCCCC2)ccc1=O` [Ia15, 2-(1-methyl-6-oxo-1,6-dihydropyridazin-3-yl)ethyl Piperidin-1-ylcarbodithioate], the IC50 at human recombinant MAO-A is above 100 µM; at human recombinant MAO-B (setting [1]), 11.9 ± 0.53 µM. Besides, the “S.I. Selectivity index hMAO-B = IC50” value at human recombinant MAO-B is >8.4^b.
As for `Cn1nc(CCCSC(=S)N2CCCC2)ccc1=O` [Ia25, 3-(1-methyl-6-oxo-1,6-dihydropyridazin-3-yl)propyl Pyrrolidin-1-ylcarbodithioate], the IC50 at human recombinant MAO-A was above 100 µM; on human recombinant MAO-B (setting [1]), 66.5 ± 4.43 µM. In addition, the “S.I. Selectivity index hMAO-B = IC50” value at human recombinant MAO-B was >1.5^b.
As to `Cc1cc(=O)n(C)nc1CSC(=S)N1CCCC1` [Id3, 1,4-dimethyl-6-oxo-1,6-dihydropyridazin-3-ylmethyl Pyrrolidin-1-ylcarbodithioate], the IC50 at human recombinant MAO-A is above 100 µM; on human recombinant MAO-B, above 1000 µM.
In the case of `Cc1cc(=O)n(C)nc1CSC(=S)N1CCCCC1` [Id4, 1,4-dimethyl-6-oxo-1,6-dihydropyridazin-3-ylmethyl Piperidin-1-ylcarbodithioate], the “S.I. Selectivity index hMAO-B = IC50” value on human recombinant MAO-B is recorded as 13.4. In addition, the IC50 on human recombinant MAO-B (setting [1]) was 7.48 ± 0.34 µM.
For `Cc1cc(=O)n(C)nc1CSC(=S)N1CCOCC1` [Id5, 1,4-dimethyl-6-oxo-1,6-dihydropyridazin-3-ylmethyl morpholin-4-ylcarbodithioate], in that order: 2.6 and 38.6 ± 1.74 µM.
For the compound `Cc1cc(=O)n(C)nc1CSC(=S)N1CCN(C(=O)c2ccccc2)CC1` [Id11, 1,4-dimethyl-6-oxo-1,6-dihydropyridazin-3-ylmethyl 4-benzoylpiperazin-1-ylcarbodithioate], the “S.I. Selectivity index hMAO-B = IC50” value on human recombinant MAO-B is 2.2. Besides, on human recombinant MAO-B (setting [1]), the IC50 worked out at 44.5 ± 2 µM.
